This is an account of results in ChEMBL document CHEMBL3992566, “Development and Biological Evaluation of a Photoactivatable Small Molecule Microtubule-Targeting Agent” (ACS Med Chem Lett, 2017).

By EC50 is commonly meant the concentration that produces a half-maximal response.

Data set [1] can be described thus: Induction of apoptosis in patient-derived RN1 cells at 5 uM after 48 hrs under dark condition by Annexin V staining based assay (reference value: 8.1%). The note with it: human, rn1, 48 h. In kind it is cell-based.
A short description of data set [2]: Photoactivation of prodrug assessed as 4-(4-(2-fluoropyridin-3-yl)phenyl)-N-(4-hydroxyphenyl)butanamide release at 1 mM under UV irradiation of 5400 mW after 1 min by HPLC-MS analysis.
Data set [3] in a line: Phototoxicity against patient-derived RN1 cells assessed as reduction in cell viability under UV irradiation of 1800 mW for 30 secs measured after 72 hrs by Cell-Titer Blue assay. In kind it is functional, cell-based. As to conditions: Homo sapiens, RN1, light or radiation study.
A short description of data set [4]: Dark toxicity against patient-derived RN1 cells assessed as reduction in cell viability after 72 hrs by Cell-Titer Blue assay. Type of data set: cell-based. The note with it: human.
Data set [5] can be described thus: Photoactivation of prodrug assessed as time required to release maximum concentration of 4-(4-(2-fluoropyridin-3-yl)phenyl)-N-(4-hydroxyphenyl)butanamide at 1 mM under UV irradiation of 5400 mW by HPLC-MS analysis.
A short description of data set [6]: Effect on colchicine binding to porcine brain tubulin up to 60 uM after 90 mins under dark condition by fluorescence assay. In kind it is ADME, Sus scrofa. As to conditions: pig, 1.5 h.
Data set [7] can be described thus: Disruption of microtubule organization in human U251 cells assessed as changes in cell morphology at 5 uM after 24 hrs under dark condition by DAPI staining based immunofluorescence assay. Type of data set: ADME.
For data set [8], the species on record is Homo sapiens. Put plainly: Disruption of microtubule organization in human U251 cells assessed as cell rounding at 5 uM after 24 hrs under UV irradiation of 1800 mW for 5 mins by DAPI staining based immunofluorescence assay.
Data set [9] in a line: Induction of apoptosis in patient-derived RN1 cells assessed as late apoptotic cells at 5 uM after 48 hrs under UV irradiation of 1800 mW for 30 secs by Annexin V staining based assay relative to control. In kind it is functional, Homo sapiens.
Data set [10] is described as follows: Dark toxicity against human U251 cells assessed as reduction in cell viability after 72 hrs by Cell-Titer Blue assay. In kind it is cell-based, U-251.
For data set [11], the species on record is Sus scrofa. As to the kind of experiment: Inhibition of porcine brain tubulin polymerization at 50 uM under UV irradiation of 1800 mW for 5 mins by fluorescence assay.
The nature of data set [12]: Induction of apoptosis in patient-derived RN1 cells assessed as live cells at 5 uM after 48 hrs under UV irradiation of 1800 mW for 30 secs by Annexin V staining based assay relative to control. In kind it is functional, Homo sapiens.
The subject of data set [13] is U-251. Put plainly: Phototoxicity against human U251 cells assessed as reduction in cell viability under UV irradiation of 1800 mW for 1 min measured after 72 hrs by Cell-Titer Blue assay. As to conditions: U-251, light or radiation study. Type of data set: functional, cell-based.
Data set [14] is described as follows: Effect on kinetics of porcine brain tubulin polymerization at 50 uM under dark condition by fluorescence assay. In kind it is ADME, Sus scrofa. As to conditions: pig.
Data set [15] can be described thus: Disruption of microtubule organization in human U251 cells at 5 uM after 24 hrs under dark condition by DAPI staining based immunofluorescence assay. In kind it is ADME, cell-based.
The species entered for data set [16] is Homo sapiens. As to the kind of experiment: Disruption of microtubule organization in human U251 cells at 5 uM after 24 hrs under UV irradiation of 1800 mW for 5 mins by DAPI staining based immunofluorescence assay. In kind it is cell-based.
The nature of data set [17]: Photoactivation of prodrug assessed as decay time constant for 4-(4-(2-fluoropyridin-3-yl)phenyl)-N-(4-hydroxyphenyl)butanamide release at 1 mM under UV irradiation of 5400 mW after 1 min by HPLC-MS analysis.
Data set [18] can be described thus: Induction of apoptosis in patient-derived RN1 cells assessed as early apoptotic cells at 5 uM after 48 hrs under UV irradiation of 1800 mW for 30 secs by Annexin V staining based assay relative to control. In kind it is functional, Homo sapiens.
A short description of data set [19]: Induction of apoptosis in patient-derived RN1 cells assessed as necrotic cells at 5 uM after 48 hrs under UV irradiation of 1800 mW for 30 secs by Annexin V staining based assay relative to control. In kind it is functional, Homo sapiens.
The subject of data set [20] is U-251. As to the kind of experiment: Phototoxicity against human U251 cells assessed as reduction in cell viability up to 100 uM under UV irradiation of 1800 mW for 1 min measured after 72 hrs by Cell-Titer Blue assay. Type of data set: functional, cell-based.
The nature of data set [21]: Drug metabolism in human U251 cells assessed as DMNB release up to 100 uM under UV irradiation of 1800 mW for 1 min measured after 72 hrs. Type of data set: ADME, cell-based. As to conditions: u-251, 72 h.
The species named for data set [22] is Sus scrofa. Put plainly: Inhibition of colchicine binding to porcine brain tubulin up to 60 uM after 90 mins by fluorescence assay.
For data set [23], the species on record is Sus scrofa. Put plainly: Inhibition of porcine brain tubulin polymerization at 3 uM by fluorescence assay.
The species entered for data set [24] is Sus scrofa. Put plainly: Inhibition of porcine brain tubulin polymerization at 50 uM by fluorescence assay.
A short description of data set [25]: Induction of apoptosis in patient-derived RN1 cells at 5 uM after 48 hrs by Annexin V staining based assay (reference value: 8.1%). Type of data set: functional, Homo sapiens.
Data set [26] in a line: Cytotoxicity against patient-derived RN1 cells assessed as reduction in cell viability after 72 hrs by Cell-Titer Blue assay. In kind it is functional, cell-based. As to conditions: Homo sapiens, RN1, 72 h.
For data set [27], the species on record is Sus scrofa. Put plainly: Inhibition of colchicine binding to porcine brain tubulin after 90 mins by fluorescence assay.
Data set [28] is filed under the species Homo sapiens. As to the kind of experiment: Disruption of microtubule organization in human U251 cells assessed as changes in cell morphology at 5 uM after 24 hrs by DAPI staining based immunofluorescence assay.
A short description of data set [29]: Photostability of the compound at 1 mM under UV irradiation of 5400 mW after 20 mins by HPLC-MS analysis.
The species named for data set [30] is Homo sapiens. Put plainly: Disruption of microtubule organization in human U251 cells at 5 uM after 24 hrs by DAPI staining based immunofluorescence assay. In kind it is cell-based.
In data set [31] the test system is U-251. Put plainly: Cytotoxicity against human U251 cells assessed as reduction in cell viability after 72 hrs by Cell-Titer Blue assay. Type of data set: functional, cell-based. The note with it: U-251, 72 h.
The subject of data set [32] is U-251. Put plainly: Cytotoxicity against human U251 cells assessed as reduction in cell viability at >40 uM after 72 hrs by Cell-Titer Blue assay. In kind it is functional, cell-based.

Activity calls are given as the source filed them. No cut-off for these calls is given here.

For `COc1cc(COc2ccc(NC(=O)CCCc3ccc(-c4cccnc4F)cc3)cc2)c([N+](=O)[O-])cc1OC`, the Activity in data set [1] is 12.6%; in [6] it was “Not Active”; in [7], “Not Active”; in data set [9] it was 41.3%; in [12], 36.95%; in data set [14], “Not Active”. Further, the values for the Activity entry in [15], in [18] and in data set [19] were “Not Active”, 20.75% and 0.5%, respectively. The Drug metabolism in [2] came out at 80%. Moreover, the figures for the EC50 in data set [3] and in data set [13] were 1.2 µM and 2.1 µM, respectively. Also, the half-maximal effective concentration (EC50) at 72 h in data set [4] amounted to 37.4 µM; in data set [10] it was 72 µM. Further, the TIME is above 0.0333 h in data set [5] and 0.0101 h in [17]. The result in data set [8] and in data set [16] was Active. In addition, in [11], the inhibition entry is “Active”.

Take `COc1cc(COC(=O)C(C)NC(=O)OC(C)(C)C)c([N+](=O)[O-])cc1OC` (stereo unspecified): the outcome in data set [20] was inactive. In addition, the Drug metabolism entry in data set [21] is on record as “Metabolite_Detected”.

For `CC[C@]1(O)C[C@@H]2CN(CCc3c([nH]c4ccccc34)[C@@](C(=O)OC)(c3cc4c(cc3OC)N(C)[C@H]3[C@@](O)(C(=O)OC)[C@H](OC(C)=O)[C@]5(CC)C=CCN6CC[C@]43[C@@H]65)C2)C1`, the inhibition entry in [22] is “inactive”. Besides, the inhibition result in data set [23] is “Active”.

With `O=C(CCCc1ccc(-c2cccnc2F)cc1)Nc1ccc(O)cc1`, the half-maximal effective concentration (EC50) in data set [3] came to 0.7 µM; in [26], 0.3 µM; in [13], 1.4 µM; in data set [31], 1.3 µM. Moreover, the inhibition result in data set [24] is “Active”. Besides, the Activity in data set [25] was determined as 47.8%. Further, the inhibition entry in [27] is “Dose-dependent effect”. Besides, the result in data set [28] and in data set [30] was Active. Also, the Stability entry in data set [29] is “Stable”.

In the case of `O=C(CCCc1ccc(-c2cccnc2F)cc1)Nc1ccc(OCc2ccccc2)cc1`, the result in [32] was inactive.

As to `CC(=O)O[C@H]1C(=O)[C@@]2(C)[C@H]([C@H](OC(=O)c3ccccc3)[C@]3(O)C[C@H](OC(=O)[C@H](O)[C@@H](NC(=O)c4ccccc4)c4ccccc4)C(C)=C1C3(C)C)[C@]1(OC(C)=O)CO[C@@H]1C[C@@H]2O`, the inhibition entry in [23] is “inactive”.

On to `COC(=O)Nc1nc2cc(C(=O)c3cccs3)ccc2[nH]1`, for which, in data set [22], the inhibition result was “Active”.
